Literature values in US20210128676A1, “METHOD OF TREATING PATIENTS WITH H[…] TYPE 1 AND LOW MEAN ARTERIAL PRESSURE” (Mallinckrodt Hospital Products IP Unlimited Company, priority 2019, published 2021).
Positions of bridges follow the written chain, without caps; N, C: chain ends. Residues, ends and D or L forms follow the SMILES beside them.

Conditions: in vivo

Structure (SMILES)	duration of action [min]	half-life [h]
NC(=O)CC[C@@H]1NC(=O)[C@H](Cc2ccccc2)NC(=O)[C@H](Cc2ccc(O)cc2)NC(=O)[C@@H](N)CSSC[C@@H](C(=O)N2CCC[C@H]2C(=O)N[C@@H](CCCN=C(N)N)C(=O)NCC(N)=O)NC(=O)[C@H](CC(N)=O)NC1=O [vasopressin]	30 to 60	0.1
NCCCC[C@H](NC(=O)[C@@H]1CCCN1C(=O)[C@@H]1CSSC[C@H](NC(=O)CNC(=O)CNC(=O)CN)C(=O)N[C@@H](Cc2ccc(O)cc2)C(=O)N[C@@H](Cc2ccccc2)C(=O)N[C@@H](CCC(N)=O)C(=O)N[C@@H](CC(N)=O)C(=O)N1)C(=O)NCC(N)=O [Terlipressin, N—[N—(N-glycylglycyl)glycyl]-8-L-lysinevasopressin] (H-GGGCYFQNCPKG-NH2; disulfide 4-9 (inferred))		6
